From patent publication EP0803251B1, “Immediate release pH-independent solid dosage form of cisapride” (JANSSEN PHARMACEUTICA N.V., priority 1996, dated 1997)

Assays:
clinical = conditions: in vivo; for tmax: po
Procedure: A standard breakfast consists of four slices of bread, one slice of ham, one slice of cheese, butter, jelly and two cups of coffee or tea with if desired milk and/or sugar, was served. […] Thereafter, subjects could resume their usual diet.
The trial medication was taken with 100 ml water.
Blood samples were taken until 48 h post-dosing.
AUClast area under the plasma concentration-time curve from time 0 to the last time point (last quantifiable concentration, calculated by linear trapezoidal summation. AUC∞ area under the plasma concentration-time extrapolated to infinity t½term terminal half-life, defined as 0.693/Sz

[1] = Dissolution of salts of cisapride in artificial gastric juice; format: physicochemical
[2] = Dissolution of tablets at different pH-values, USP test <711>, USP-2 dissolution apparatus (paddle); format: physicochemical; conditions: conclusion in words
Procedure: The dissolution of tablets comprising cisapride-(L)-tartrate having the composition and prepared as described in Example 1 was compared with tablets comprising cisapride monohydrate instead of cisapride-(L)-tartrate (the rest of the composition and the preparation being the same) at different pH-values.
The test tablet was brought in a glass container containing 900 ml of the specified buffer at a temperature of 37 °C. The stirring is performed by a paddle at a rotational speed of 50 rpm (rotations per minute). This test is s set forth in USP test <711> in a USP-2 dissolution apparatus. This latter test is described in US Pharmacopeia XXII, pp 1578-1579. a) pH = ± 1.5 (HCl : 0.1 N)

[3] = human, in vivo
Source text: (AUC is the abbreviation of Area Under the Curve, which is an indication of the amount of active ingredient that is present in the blood).

[4] = formulations containing cisapride-(L)-tartrate release cisapride in a racemic form; cited from earlier work

COc1cc(N)c(Cl)cc1C(=O)NC1CCN(CCCOc2ccc(F)cc2)CC1OC (racemic) [cisapride-(L)-tartrate]
tmax (clinical; human): 2.1 ± 0.7 h | tmax (clinical; human, tmax): 1.4 ± 0.4 h | bioequivalence of the tartrate and monohydrate formulations (clinical): bioequivalent | bioequivalence with respect to the total exposure (AUC∞) (clinical): bioequivalence is demonstrated | influence of fed or fasting conditions on absorption, peak levels and total exposure (clinical): little influence | dissolution in artificial gastric juice ([1]; compared with other salts of cisapride): better dissolution | dissolution compared with cisapride monohydrate ([2]; 0.1 N HCl (pH = ± 1.5)): comparable | dissolution compared with cisapride monohydrate ([2]; pH 4.5): clearly better | dissolution compared with cisapride monohydrate ([2]; pH = 6.5): clearly superior

COc1cc(N)c(Cl)cc1C(=O)NC1CCN(CCCOc2ccc(F)cc2)CC1OC (racemic) [reference compound]
dissolution compared with cisapride monohydrate ([1]; salt forms of cisapride): dissolve slower than the cisapride monohydrate itself

COc1cc(N)c(Cl)cc1C(=O)N[C@H]1CCN(CCCOc2ccc(F)cc2)C[C@H]1OC (relative stereo) [cisapride monohydrate, cis-4-amino-5-chloro-N-[1-[3-(4-fluorophenoxy)propyl]-3-methoxy-4-piperidinyl]-2-methoxybenzamide, reference compound]
higher exposure of cisapride in comparison with the fasting conditions (clinical; human): 29% | higher peak levels of cisapride in comparison with the fasting conditions (clinical; human): 33% | tmax (clinical; human): 2.3 ± 0.6 h | tmax (clinical; human, tmax): 1.7 ± 0.5 h | bioequivalence of the tartrate and monohydrate formulations (clinical): bioequivalent | ratio of AUC in fed state over AUC in fasted state [3]: about 1.35

(+)-cisapride-(L)-tartrate
dissolution rates of the diastereomeric salt forms [4]: equal dissolution rates

(-)-cisapride-(L)-tartrate
dissolution rates of the diastereomeric salt forms [4]: equal dissolution rates
